Assay [1] deals with T1, angiotensin-induced vasoconstriction (rabbit aorta) (Oryctolagus cuniculus, UniProt P34976).
T1 construct: The thoracic aortas were removed and cleaned of excess fat and connective tissue; from tissue; host or cells: thoracic aorta rings of New Zealand white rabbits (animals from Hazelton)
T1 sequence (P34976 1-359): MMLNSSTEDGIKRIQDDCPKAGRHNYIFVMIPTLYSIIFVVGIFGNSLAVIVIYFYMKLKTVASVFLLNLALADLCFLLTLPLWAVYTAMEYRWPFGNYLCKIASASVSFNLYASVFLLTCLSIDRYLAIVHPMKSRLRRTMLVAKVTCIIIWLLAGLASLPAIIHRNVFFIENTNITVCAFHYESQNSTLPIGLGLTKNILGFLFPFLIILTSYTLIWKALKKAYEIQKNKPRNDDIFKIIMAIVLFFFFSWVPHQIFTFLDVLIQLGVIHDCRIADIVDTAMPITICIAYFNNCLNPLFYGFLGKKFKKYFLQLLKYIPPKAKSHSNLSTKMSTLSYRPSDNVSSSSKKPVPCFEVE
The assay is described as follows: Rabbit Aorta Test System: antagonism of angiotensin II contraction of aortic rings. The arrangement: species or system New Zealand white rabbits. As to conditions: contraction to AII 10^-10 to 10^-7 M, 30 minutes incubation with compound; pA2 = -log KB. On the procedure:
(§1) As previously discussed, the compounds of Formula I are potent effective antagonists of angiotensin II. The ability of representative compounds of Formula I to block angiotensin II receptor binding was determined using the adrenal glomerulosa assay. The ability to antagonize angiotensin-induced vasoconstriction was evaluated in the rabbit aorta test system.
New Zealand white rabbits (Hazelton, 2-3 kg) were sacrificed by cervical dislocation. The thoracic aortas were removed and cleaned of excess fat and connective tissue. Rings of tissue (3 mm wide) were mounted in 10 ml tissue baths between 2 L-shaped stainless steel hooks. The lower hook was attached to a stationary rod. The upper hook was attached to a force displacement transducer (Grass model FT.03). The bath chambers were maintained at 37° C., aerated with 95% 02 /5% C02, and contained physiological solution of the following composition (mM): NaCl, 117; glucose, 5.6; NaH2 PO4, 1.0; MgS04, 0.7; KCl, 5.2; CaCl2, 1.8; NaHCO3, 26; and phentolamine HCl, 0.003.
Rings were equilibrated for 1 hour with 2 g of tension. During the equilibration period, the tissues were washed by overflow every 15 minutes. Rings were then exposed to 10^-8 M angiotensin II (AII) and were allowed to contract until a steady state was reached. Tissues were then washed every 15 minutes for 1 hour. This was repeated every hour until the AII response stabilized. A cumulative concentration response curve to AII (10^-10 to 10^-7 M) was then obtained. At the conclusion of the concentration response curve, tissues were washed every 2 minutes until baseline tension was reached, then every 15 minutes for 30 minutes. Compounds were added in a volume of 10 μl DMSO and allowed to incubate for 30 minutes before repeating the concentration response curve to AII. Contractions to AII were expressed as a percent of the maximum contraction obtained in the control curve (the first AII concentration response curve). EC50 's (concentration that contracted the tissues to 1/2 the control maximum) for each curve were calculated using a 4 parameter logistics model (NonLin, SAS Institute). Potency data for each compound tested are expressed as the pA2 (defined as-log KB, where KB =[molar concentration of antagonist]/[(EC50 AII with antagonist/EC50 AII without antagonist)-1]).

Assay [2] deals with angiotensin II receptor (adrenal membranes). The assay is described as follows: Adrenal Glomerulosa Test System: binding of I^125-angiotensin II to adrenal membranes. As to conditions: displacement of 0.1 nM I^125-angiotensin II, rat adrenal membranes, 90 minutes, room temperature; KI by Cheng Prusoff equation; read-out: Adrenal Glomulosa (KI). On the procedure:
as §1
Binding of I^125 -angiotensin II to adrenal membranes was routinely carried out in 96-well filtration plates. Adrenal membranes were prepared from the capsular portion (glomerulosal layer attached) of rat adrenal glands by differential centrifugation. Briefly, capsules were homogenized in a solution containing sucrose, 250 mM; MgCl2, 1 mM; and tris, 5 mM at pH 7.5 and 4° C. using a polytron at setting 5 for 20 seconds. The homogenate was stirred, gently, for 15 minutes at 4° C. and then centrifuged 10 minutes, at 1000×g, 4° C. The supernatant was centrifuged 30 minutes, at 30,000×g, 4° C., and the resulting pellet resuspended in 50 mM tris. Membrane preparations were stored in aliquots at -70° C. until used. Binding of I^125 -angiotensin II to adrenal membranes was performed at room temperature for 90 minutes in 96-well plates containing a hydrophilic polyvinylidene fluoride membrane (0.45 μm, Millipore-GV multiscreen). Each 250 μincubate contained the following (final concentration): tris, 50 mM; NaCl, 120 mM; MgCl2, 5 mM; dithiothrietol 1 mM; bovine serum albumin, 0.05%; I^125 -angiotensin II, 0.1 nM; and adrenal membrane protein, 8-15 μg. Antagonists were added in concentrations from 10 nM to 100 μM. Non-specific binding was measured in the presence of 0.1 μM Sar1, Ile8 angiotensin II.
Binding was terminated by vacuum filtration. Receptor-ligand complex trapped on filters was washed 3 times with 300 μl ice-cold wash solution (tris, 50 mM; NaCl, 120 mM; MgCl2, 5 mM; dithiothrietol, 1 mM). Filter discs were dried, punched out and counted in a gamma counter at 52% efficiency. Specific binding represented 96% of total binding (approximately 150 fmol angiotensin II/mg protein). The molar concentration (IC50) of the inhibitor that displaced 50% of the binding of I^125 angiotensin II for each compound was calculated using a 4 parameter logistics model (NonLin, SAS Institute). Data are expressed as KI calculated using the Cheng Prusoff equation. See Cheng et al. Biochem. Pharmacol. 22: 3099 (1973).

For `CCCCCCC(C(=O)NCC)n1cnc(NC(=O)c2ccccc2S(=O)(=O)O)c1` (stereo not drawn) [Example 1, N-Ethyl-2-[4-(2-sulfobenzoyl)amino-1H-imidazol-1-yl]octanoamide], the Kb in assay [1] is 2000 nM. Also, the Ki in assay [2] is 10300 nM.

As for `CCCCCCC(C(=O)NCCC)n1cnc(NC(=O)c2ccccc2S(=O)(=O)O)c1` (stereo not drawn) [Example 2, N-Propyl-2-[4-(2-sulfobenzoyl)amino-1H-imidazol-1-yl]octanoamide], the Kb in assay [1] was 794 nM. Besides, the inhibition constant Ki in assay [2] is 8200 nM.

For `CCCCCCC(C(=O)NCC(F)(F)F)n1cnc(NC(=O)c2ccccc2S(=O)(=O)O)c1` (stereo not drawn) [Example 3, N-(2,2,2-Trifluoroethyl)-2-[4-(2-sulfobenzoyl)amino-1H-imidazol-1-yl]octanoamide], the Kb in assay [1] was 3980 nM. Also, the inhibitory constant (Ki) in assay [2] amounted to 9600 nM.

As to `CCCCCCC(C(=O)NC(C)(C)CO)n1cnc(NC(=O)c2ccccc2S(=O)(=O)O)c1` (stereo not drawn) [Example 4, N-[2-(1-Hydroxy-2-methyl)propyl]-2-[4-(2-sulfobenzoyl)amino-1H-imidazol-1-yl]octanoamide], in assay [1], the antagonist dissociation constant (Kb) is 1000 nM. Further, the inhibitory constant (Ki) in assay [2] is 12100 nM.

Consider `CCCCCCC(C(=O)N1CCNC1=O)n1cnc(NC(=O)c2ccccc2S(=O)(=O)O)c1` (stereo not drawn) [Example 5, 2-[[[1-[1-[(2-oxo-1-imidazolidinyl)carbonyl]heptyl]-1H-imidazol-4-yl]amino]carbonyl]benzenesulfonic acid], for which the antagonist dissociation constant (Kb) in assay [1] is 501 nM. The Ki in assay [2] was determined as 178000 nM.

For `CCCCCCC(C(=O)Nc1ccccn1)n1cnc(NC(=O)c2ccccc2S(=O)(=O)O)c1` (stereo not drawn) [Example 7, N-(2-Pyridyl)-2-[4-(2-sulfobenzoyl)amino-1H-imidazol-1-yl]octanoamide], in assay [1], the Kb is 1580 nM. In addition, in assay [2], the Ki was 6800 nM.

`CCCCCCC(C(=O)Nc1ccccc1O)n1cnc(NC(=O)c2ccccc2S(=O)(=O)O)c1` (stereo not drawn) [Example 8, N-(2-Hydroxyphenyl)-2-[4-(2-sulfobenzoyl)amino-1H-imidazol-1-yl]octanoamide]: the Kb in assay [1] is 1580 nM. Also, in assay [2], the Ki was 13000 nM.

For `CCCCCCC(C(=O)Nc1ccccc1C(=O)O)n1cnc(NC(=O)c2ccccc2S(=O)(=O)O)c1` (stereo not drawn) [Example 9, N-(2-Carboxyphenyl)-2-[4-(2-sulfobenzoyl)amino-1H-imidazol-1-yl]octanoamide], the Kb in assay [1] was 251 nM. Besides, the Ki in assay [2] is 12400 nM.

As to `CCCCCCC(C(=O)O)n1cnc(NC(=O)c2cccc(O)c2S(=O)(=O)O)c1` (stereo not drawn) [Example 10, 2-[4-(3-Hydroxy-2-sulfobenzoyl)amino-1H-imidazol-1-yl]octanoic acid], in assay [1], the antagonist dissociation constant (Kb) is 63.1 nM. Further, the Ki in assay [2] was found to be 2930 nM.

Take `CCCCCC[C@H](C(=O)N1C[C@@H](Oc2ccc(NS(=O)(=O)C(F)(F)F)cc2)C[C@H]1C(=O)O)n1cnc(NC(=O)c2ccccc2S(=O)(=O)O)c1` [Example 93, (R)-1-[1-oxo-2-[4-(2-sulfobenzoyl)amino-1H-imidazol-1-yl]octyl]-4-(cis)-((4-N-triflouromethanesulfonamido)-phenoxy)-L-proline]: the “Rabbit Aorta (pA2)” value in assay [1] amounted to 8.9.

Consider `CCCCCC[C@H](C(=O)N1C[C@@H](Oc2ccc(N(C)S(C)(=O)=O)cc2)C[C@H]1C(=O)O)n1cnc(NC(=O)c2ccccc2S(=O)(=O)O)c1` [Example 94, (R)-1-[1-oxo-2-[4-(2-sulfobenzoyl)amino-1H-imidazol-1-yl]octyl]-4-(cis)-[(4-N,N-methyl-methanesulfonamido)-phenoxy]-L-proline], for which the Kb in assay [1] was 0.251 nM.

Regarding `CCCCCC[C@H](C(=O)N1C[C@@H](Oc2ccc(CNS(C)(=O)=O)cc2)C[C@H]1C(=O)O)n1cnc(NC(=O)c2ccccc2S(=O)(=O)O)c1` [Example 95], the Kb in assay [1] was 0.158 nM.

(Values after patent US5484780A, “Angiotensin II antagonists” (Eli Lilly and Company, priority 1994, dated 1996).)
